Assay in all cases: NCI anticancer screen, dose series, 48 h
For test [1], the system named is DU-145.
Test [2] has as its system HOP-92.
The subject of test [3] is HT-29.
The test system of test [4] is Hs-578T.
The test system of test [5] is M14.
The subject of test [6] is MDA-MB-435.
Test [7] deals with MDA-N.
In test [8] the test system is Malme-3M.
The subject of test [9] is NCI-H460.
The subject of test [10] is NCI-H522.
The test system of test [11] is OVCAR-3.
Test [12] concerns OVCAR-4.
Test [13] has as its system RXF 393.
Test [14] concerns SK-MEL-28.
Test [15] relates to SK-OV-3.
For test [16], the system named is SN12C.
Test [17] concerns SW-620.
Test [18] relates to TK-10.
Test [19] deals with SK-MEL-2.
Test [20] has as its system SF-539.

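Each compound was tested at five concentrations against cells in 96-well plates for 48 hours. Abbreviation: GI50, concentration required for 50% inhibition of growth.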 Active and inactive are the calls of the source. No stated cut-off is given here; in the data, active = GI50 up to about 1.1 µM and inactive = higher. Bounds are passed on as bounds.

In the case of `Nc1c(S(N)(=O)=O)cc(S(N)(=O)=O)cc1S(N)(=O)=O`, the GI50 in [1], in [2], in [3], in [4], in test [5] and in test [6] was > 100 µM (inactive) in each case. Further, the GI50 in test [7], in [8], in test [9], in [10], in [11] and in test [12] was > 100 µM (inactive) each time. For the same compound, the GI50 in test [13], in test [14], in [15], in test [16], in [17] and in test [18] was > 100 µM (inactive) in each case.
For `CC1(O)/C(=N/O)CC2CC1C2(C)C` (stereo not drawn), the GI50 in [1], in [2], in [3], in test [4], in test [5] and in test [6] was > 100 µM (inactive) throughout. Moreover, the GI50 in [7], in [8], in test [9], in test [10], in [11] and in test [12] was > 100 µM (inactive) throughout. Besides, the GI50 in test [13], in test [14], in [19], in test [16], in [17] and in [18] was > 100 µM (inactive) in each case.
Turning to `COP(=O)(OC)/C(=C\c1cn(C(c2ccccc2)(c2ccccc2)c2ccccc2)cn1)NC(C)=O`, the GI50 in test [1] was > 100 µM (inactive); in test [2], > 100 µM (inactive); in test [3], 68.5 µM (inactive); in [4], > 100 µM (inactive); in test [5] it was > 100 µM (inactive); in test [6], > 100 µM (inactive). The GI50 in [7], in test [8], in test [9], in [10], in test [11] and in test [12] was > 100 µM (inactive) in each case. In addition, the GI50 in [13] is 30.6 µM (inactive); in [20], > 100 µM (inactive); in test [14], > 100 µM (inactive); in test [15], > 100 µM (inactive); in test [16], > 100 µM (inactive); in [17] it was > 100 µM (inactive). Moreover, the GI50 in test [18] is > 100 µM (inactive).
As to `N=C(N)Nc1ccc(CC(N)NCC(=O)O)cc1` (stereo not drawn), the GI50 in test [1], in test [2], in test [3], in [4], in test [5] and in test [6] was > 25 µM (inactive) in each case. The GI50 in [7], in test [8], in test [10], in [11], in test [12] and in test [13] was > 25 µM (inactive) in each case. Further, the GI50 in test [14], in test [19], in [15], in test [16], in test [17] and in [18] was > 25 µM (inactive) each time.
`CCOC(=O)COc1c(OC)cc(C2C3=C(COC3=O)Oc3cc4c(cc32)OCO4)cc1OC` (stereo not drawn): the GI50 in test [1] was 4.5 µM (inactive); in test [2], 14.6 µM (inactive); in test [3] it was 0.927 µM (active); in [4], 4.51 µM (inactive); in test [5] it was 3.03 µM (inactive); in test [6], 0.0635 µM (active). The GI50 was 0.384 µM (active) in test [7]; 57.8 µM (inactive) in [8]; 7.94 µM (inactive) in [9]; 0.479 µM (active) in test [10]; 0.528 µM (active) in [11]; 2.46 µM (inactive) in [12]. For the same compound, the GI50 in [20] is 3.57 µM (inactive); in test [14], 0.614 µM (active); in [19], 8.75 µM (inactive); in test [15], 3.17 µM (inactive); in test [16], 1.72 µM (inactive); in test [17], 0.476 µM (active). The GI50 in test [18] was 6.18 µM (inactive).
Turning to `COc1ccc(/C=c2\s/c(=C3/SC(=S)N(c4ccccc4)C3=O)n(-c3ccccc3)c2=O)cc1`, the GI50 is > 100 µM (inactive) in test [1]; 21.6 µM (inactive) in test [2]; > 100 µM (inactive) in [3]; 18.9 µM (inactive) in test [4]; > 100 µM (inactive) in test [5]; > 100 µM (inactive) in test [6]. For the same compound, the GI50 in test [7] was > 100 µM (inactive); in [8] it was > 100 µM (inactive); in test [9] it was 12.8 µM (inactive); in [10], > 100 µM (inactive); in test [11], > 100 µM (inactive); in test [12] it was > 100 µM (inactive). The GI50 in test [20] is 32.8 µM (inactive); in [14], > 100 µM (inactive); in [15], 12.1 µM (inactive); in test [16], > 100 µM (inactive); in test [17], > 100 µM (inactive); in test [18], 21.5 µM (inactive).
For the compound `Br[C@@H]1[C@H]2c3nc4ccccc4nc3[C@@H]1C[C@H]2Br`, the GI50 in test [1] is 53 µM (inactive); in test [2], 41.2 µM (inactive); in test [3], 58.6 µM (inactive); in test [4] it was > 100 µM (inactive); in [5], > 100 µM (inactive); in [6], 91.2 µM (inactive). In addition, the GI50 was > 100 µM (inactive) in [7]; > 100 µM (inactive) in [8]; 64.6 µM (inactive) in test [9]; 54.8 µM (inactive) in test [10]; 76.9 µM (inactive) in test [11]; 32.1 µM (inactive) in [12]. Also, the GI50 was 37.7 µM (inactive) in test [13]; > 100 µM (inactive) in [14]; > 100 µM (inactive) in test [15]; > 100 µM (inactive) in [16]; > 100 µM (inactive) in test [17]; > 100 µM (inactive) in test [18].
As to `O=C(Nc1ccccc1)N(CCCCN(Cc1ccccc1)C(=O)Nc1ccccc1)Cc1ccccc1`, the GI50 was > 100 µM (inactive) in [1]; > 100 µM (inactive) in [2]; 74.5 µM (inactive) in test [3]; > 100 µM (inactive) in test [4]; > 100 µM (inactive) in [5]; > 100 µM (inactive) in test [6]. Further, the GI50 in test [7] is > 100 µM (inactive); in [8], > 100 µM (inactive); in test [9] it was > 100 µM (inactive); in test [10], 95.3 µM (inactive); in [11], > 100 µM (inactive); in test [12], 75.5 µM (inactive). For the same compound, the GI50 in [13] is 43.8 µM (inactive); in test [14], > 100 µM (inactive); in [19], > 100 µM (inactive); in test [15] it was > 100 µM (inactive); in test [16], > 100 µM (inactive); in test [17] it was > 100 µM (inactive). Moreover, the GI50 in [18] is > 100 µM (inactive).
In the case of `COc1ccc(C2c3cc4c(cc3C(O)C3CCC(=O)N23)OCO4)cc1` (stereo not drawn), the GI50 in [1], in test [2], in test [3], in test [4], in test [5] and in test [6] was > 100 µM (inactive) each time. For the same compound, the GI50 in test [7], in test [8], in test [9], in [10], in [11] and in test [12] was > 100 µM (inactive) in each case. Besides, the GI50 in [20], in test [14], in [19], in test [15], in [16] and in test [17] was > 100 µM (inactive) each time. In addition, the GI50 in test [18] is > 100 µM (inactive).
As for `CCOC(=O)c1c(SCCCN2CCCCC2)n(-c2ccccc2)c(=S)n(-c2ccccc2)c1=O`, the GI50 in test [1] was 16.4 µM (inactive); in test [2], 14.4 µM (inactive); in test [3], 20.3 µM (inactive); in [4] it was 20.9 µM (inactive); in test [5], 16.5 µM (inactive); in [6] it was 15.8 µM (inactive). In addition, the GI50 in [7] was 15 µM (inactive); in test [8] it was 16.3 µM (inactive); in test [10] it was 19.3 µM (inactive); in test [11], 16.7 µM (inactive); in [12], 17.7 µM (inactive); in [13] it was 18.3 µM (inactive). Also, the GI50 was 14.8 µM (inactive) in [20]; 17.4 µM (inactive) in test [14]; 16.7 µM (inactive) in test [19]; 16.2 µM (inactive) in test [16]; 17.7 µM (inactive) in [17]; 20.6 µM (inactive) in test [18].
As to `COc1cc(N(CCC#N)CCC#N)ccc1C(/N=N/c1cccc([N+](=O)[O-])c1)=N\NC(=O)c1ccc(C)cc1`, the GI50 was > 100 µM (inactive) in test [1]; 33.9 µM (inactive) in test [2]; 92 µM (inactive) in test [3]; > 100 µM (inactive) in test [4]; > 100 µM (inactive) in [5]; > 100 µM (inactive) in [6]. The GI50 was 84.5 µM (inactive) in test [7]; > 100 µM (inactive) in test [8]; 24.3 µM (inactive) in test [9]; 26.5 µM (inactive) in test [10]; 96.8 µM (inactive) in [11]; 53.7 µM (inactive) in test [12]. The GI50 in test [13], in [14], in test [19], in test [15], in test [16] and in test [17] was > 100 µM (inactive) throughout. Also, the GI50 in test [18] was 31.7 µM (inactive).

The values are drawn from ChEMBL document CHEMBL1201862, “PubChem BioAssay data set” (2004).
